Patent publication US20260258502A1, “METHODS AND REAGENTS FOR DETECTION OF CIRCULAR DNA MOLECULES IN BIOLOGICAL SAMPLES” (priority 2022, published 2026)

System: Human TK6 cells
Assay: Duplex sequencing (DS) of human TK6 cells treated with genotoxic compounds: putative DNA circle frequency and mutation frequency
Type: cell-based
Conditions: detected by DS, dose groups vs untreated group, proxy for clastogenicity
Experimental: To assess whether DNA circle frequency is a proxy for clastogenicity, DS data for various genotoxic agents were re-analyzed. ENU is a well-known potent mutagen and clastogen.
Human TK6 cells were treated with different potentially genotoxic compounds. DS libraries were prepared with 500 ng of DNA input. […] FIG. 10A-10B show the frequency of putative circles, calculated as frequency=(#circles detected)/(#duplex bases sequenced).

CCN(N=O)C(N)=O [ENU]
frequency of putative DNA circles per duplex base pair (#circles detected)/(#duplex bases sequenced): increased candidate DNA circle frequency in a dose-dependent manner, reaching statistical significance in the highest dose group
